The values that follow come from US20060178398A1, “Therapeutic compounds for treating dyslipidemic conditions” (priority 2004, published 2006).

The assay relates to Caco-2 cells. In words: Cholesterol efflux from cultured human cells (Caco-2, 3H-cholesterol, apoA-I). It counts as cell-based. As to conditions: 24 h, mean of quadruplicate incubations. How it is done: To assess the relevant biological activity of the LXR agonists, certain compounds were tested for their ability to increase cholesterol efflux from cultured human cells, as described by Sparrow et al., JBC, 277, 10021-10027, Mar. 22, 2002. Caco-2 cells, which are of human origin, were obtained from ATCC and grown in Opti-MEM (Gibco #51985-034) containing 10% FCS, non-essential amino acids (Gibco #11140-050), and vitamins (Gibco # 11120-052). Caco-2 cells were plated at 100,000 cells/well in 48-well plates. After four days the cells had reached confluence, and were then labeled with ^3H-cholesterol by incubation for 24 hours in fresh growth media containing ^3H-cholesterol (10 μCi/ml). Following labeling with ^3H-cholesterol, cells were washed and incubated an additional 24 hours in serum-free media containing 1 mg/ml BSA, to allow for equilibration of ^3H-cholesterol with intracellular cholesterol. Cholesterol efflux was initiated by adding 10 μg/ml apoA-I, with or without compound, in serum-free medium. Compounds were added to cell culture medium from DMSO solutions, and control cells received an equivalent amount of DMSO, never exceeding 0.1%. After 24 hours, media were harvested and cells dissolved in 0.1 M NaOH. Media were briefly centrifuged to remove non-adherent cells, and then aliquots of both the supernatants and the dissolved cells were subjected to liquid scintillation spectrometry to determine radioactivity. Cholesterol efflux is expressed as a percentage, calculated as (^3H-cholesterol in medium/(^3H-cholesterol in medium +^3H-cholesterol in cells))×100.
Background: Caco-2 monolayers are a common model of the intestinal barrier.

Take `CCCc1c(OCCCN(C)c2cnc(CC(=O)O)cn2)ccc2c(C(F)(F)F)noc12` [Example 25, {5-[methyl(3-{[7-propyl-3-(trifluoromethyl)-1,2-benzisoxazol-6-yl]oxy}propyl)amino]pyrazin-2-yl}acetic acid]: the “% cholesterol efflux” value was determined as 3.4% (compound concentration 10 nM); 4.4% (compound concentration 30 nM); 4.3% (compound concentration 100 nM); 6.6% (compound concentration 300 nM); 7.4% (compound concentration 1000 nM); 7.7% (compound concentration 3000 nM).

Regarding `CCCc1c(OCCCn2ccc3cc(CC(=O)O)c(Cl)cc32)ccc2c(C(F)(F)F)noc12` [Example 40, [6-chloro-1-(3-{[7-propyl-3-(trifluoromethyl)-1,2-benzisoxazol-6-yl]oxy}propyl)-1H-indol-5-yl]acetic acid], the “% cholesterol efflux” value is, setting by setting: (compound concentration 10 nM) 4.9%; (compound concentration 30 nM) 5.2%; (compound concentration 100 nM) 5.9%; (compound concentration 300 nM) 6.3%; (compound concentration 1000 nM) 6.5%; (compound concentration 3000 nM) 7.7%.
